How the values were obtained:
Experiment in all cases: β-arrestin based GPCR screen (PathHunter / GPCRmax), antagonist mode
168 GPCRs [1] = target: 168 GPCRs (Homo sapiens, UniProt P35367)
168 GPCRs [2] = target: 168 GPCRs (Homo sapiens, UniProt P51582)
168 GPCRs [3] = target: 168 GPCRs (Homo sapiens, UniProt Q8NFJ6)
168 GPCRs [4] = target: 168 GPCRs (Homo sapiens, UniProt P41968); conditions: MC3R
168 GPCRs [5] = target: 168 GPCRs (Homo sapiens, UniProt Q9P296); conditions: C5L2, Antagonist
168 GPCRs [6] = target: 168 GPCRs (Homo sapiens, UniProt P35346)
168 GPCRs [7] = target: 168 GPCRs (Homo sapiens, UniProt P51677); conditions: CCR3, Antagonist
168 GPCRs [8] = target: 168 GPCRs (Homo sapiens, UniProt P08172); conditions: CHRM2, Antagonist
168 GPCRs [9] = target: 168 GPCRs (Homo sapiens, UniProt Q13324)
168 GPCRs [10] = target: 168 GPCRs (Homo sapiens, UniProt P21731); conditions: TBXA2R
168 GPCRs [11] = target: 168 GPCRs (Homo sapiens, UniProt Q99705)
168 GPCRs [12] = target: 168 GPCRs (Homo sapiens, UniProt P30874)
168 GPCRs [13] = target: 168 GPCRs (Homo sapiens, UniProt P41587)
168 GPCRs [14] = target: 168 GPCRs (Homo sapiens, UniProt Q03431)
168 GPCRs [15] = target: 168 GPCRs (Homo sapiens, UniProt Q8TDS5)
168 GPCRs [16] = target: 168 GPCRs (Homo sapiens, UniProt Q92847); conditions: GHSR
168 GPCRs [17] = target: 168 GPCRs (Homo sapiens, UniProt P30989)
168 GPCRs [18] = target: 168 GPCRs (Homo sapiens, UniProt P32246); conditions: CCR1, Antagonist
168 GPCRs [19] = target: 168 GPCRs (Homo sapiens, UniProt Q15077)
168 GPCRs [20] = target: 168 GPCRs (Homo sapiens, UniProt P21730); conditions: C5AR1, Antagonist
168 GPCRs [21] = target: 168 GPCRs (Homo sapiens, UniProt P46091)
168 GPCRs [22] = target: 168 GPCRs (Homo sapiens, UniProt P32241)
168 GPCRs [23] = target: 168 GPCRs (Homo sapiens, UniProt P47872); conditions: SCTR

168 GPCRs (Homo sapiens, UniProt Q13324), sequence (Q13324 whole entry): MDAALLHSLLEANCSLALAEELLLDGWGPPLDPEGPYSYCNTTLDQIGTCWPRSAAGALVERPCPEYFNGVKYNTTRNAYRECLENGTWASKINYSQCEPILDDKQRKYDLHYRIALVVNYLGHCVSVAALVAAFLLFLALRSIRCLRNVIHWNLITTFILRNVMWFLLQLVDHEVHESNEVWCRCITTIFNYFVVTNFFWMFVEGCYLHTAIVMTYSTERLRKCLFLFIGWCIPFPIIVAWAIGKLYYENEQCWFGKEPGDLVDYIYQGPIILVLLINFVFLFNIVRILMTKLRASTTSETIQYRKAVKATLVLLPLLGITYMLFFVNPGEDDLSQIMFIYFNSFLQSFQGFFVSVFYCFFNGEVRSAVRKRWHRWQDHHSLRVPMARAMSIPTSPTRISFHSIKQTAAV
168 GPCRs (Homo sapiens, UniProt P32246), sequence (P32246 whole entry): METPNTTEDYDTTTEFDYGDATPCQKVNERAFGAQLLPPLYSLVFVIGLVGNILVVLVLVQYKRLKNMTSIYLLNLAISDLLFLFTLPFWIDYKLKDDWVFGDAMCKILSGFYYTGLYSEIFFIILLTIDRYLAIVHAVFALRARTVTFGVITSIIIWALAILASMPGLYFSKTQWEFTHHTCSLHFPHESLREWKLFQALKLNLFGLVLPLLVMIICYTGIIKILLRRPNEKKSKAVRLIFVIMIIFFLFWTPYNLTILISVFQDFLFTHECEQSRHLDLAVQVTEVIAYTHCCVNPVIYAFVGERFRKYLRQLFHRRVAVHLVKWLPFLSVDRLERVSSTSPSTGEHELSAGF
168 GPCRs (Homo sapiens, UniProt P41587), sequence (P41587 24-438): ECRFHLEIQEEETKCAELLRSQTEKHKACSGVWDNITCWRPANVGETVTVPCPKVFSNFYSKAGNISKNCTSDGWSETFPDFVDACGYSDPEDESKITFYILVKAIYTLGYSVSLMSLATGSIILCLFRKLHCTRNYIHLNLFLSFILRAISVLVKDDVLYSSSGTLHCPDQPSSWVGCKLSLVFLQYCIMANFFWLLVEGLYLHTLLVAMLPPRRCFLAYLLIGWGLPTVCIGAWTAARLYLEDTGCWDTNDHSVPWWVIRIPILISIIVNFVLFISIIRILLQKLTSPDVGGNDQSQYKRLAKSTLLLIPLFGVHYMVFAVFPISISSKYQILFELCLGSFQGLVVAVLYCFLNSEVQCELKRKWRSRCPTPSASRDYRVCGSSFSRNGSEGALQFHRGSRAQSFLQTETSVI
168 GPCRs (Homo sapiens, UniProt P32241), sequence (P32241 31-457): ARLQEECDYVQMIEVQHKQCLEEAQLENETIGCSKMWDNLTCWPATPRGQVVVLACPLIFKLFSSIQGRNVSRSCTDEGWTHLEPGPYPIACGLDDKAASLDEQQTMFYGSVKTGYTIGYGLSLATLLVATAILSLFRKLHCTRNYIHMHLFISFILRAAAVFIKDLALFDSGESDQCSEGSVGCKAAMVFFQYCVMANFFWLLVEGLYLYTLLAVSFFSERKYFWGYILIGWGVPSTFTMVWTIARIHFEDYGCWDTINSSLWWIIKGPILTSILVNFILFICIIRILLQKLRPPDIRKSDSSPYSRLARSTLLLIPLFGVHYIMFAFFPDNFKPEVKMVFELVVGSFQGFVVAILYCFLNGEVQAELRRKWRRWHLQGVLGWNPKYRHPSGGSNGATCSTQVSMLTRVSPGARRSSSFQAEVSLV
168 GPCRs (Homo sapiens, UniProt Q99705), sequence (Q99705 whole entry): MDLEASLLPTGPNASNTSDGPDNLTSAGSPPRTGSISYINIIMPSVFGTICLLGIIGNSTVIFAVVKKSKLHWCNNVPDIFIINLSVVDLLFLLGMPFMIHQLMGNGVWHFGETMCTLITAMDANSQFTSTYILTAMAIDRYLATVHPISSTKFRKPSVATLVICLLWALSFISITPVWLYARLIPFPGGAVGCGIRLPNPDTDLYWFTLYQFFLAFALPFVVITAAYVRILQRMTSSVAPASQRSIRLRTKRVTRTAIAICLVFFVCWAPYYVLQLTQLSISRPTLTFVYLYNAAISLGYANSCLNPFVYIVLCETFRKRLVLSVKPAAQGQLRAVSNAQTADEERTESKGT
168 GPCRs (Homo sapiens, UniProt P51677), sequence (P51677 whole entry): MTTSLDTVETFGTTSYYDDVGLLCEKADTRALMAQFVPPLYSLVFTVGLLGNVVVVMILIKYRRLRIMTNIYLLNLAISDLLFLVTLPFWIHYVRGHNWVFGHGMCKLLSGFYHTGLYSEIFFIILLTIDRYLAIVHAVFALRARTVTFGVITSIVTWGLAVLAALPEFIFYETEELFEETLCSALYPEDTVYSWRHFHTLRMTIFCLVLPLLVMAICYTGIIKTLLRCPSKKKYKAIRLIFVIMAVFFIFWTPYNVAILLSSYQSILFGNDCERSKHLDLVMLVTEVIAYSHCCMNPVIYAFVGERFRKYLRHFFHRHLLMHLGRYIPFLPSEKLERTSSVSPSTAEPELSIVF
168 GPCRs (Homo sapiens, UniProt P21730), sequence (P21730 whole entry): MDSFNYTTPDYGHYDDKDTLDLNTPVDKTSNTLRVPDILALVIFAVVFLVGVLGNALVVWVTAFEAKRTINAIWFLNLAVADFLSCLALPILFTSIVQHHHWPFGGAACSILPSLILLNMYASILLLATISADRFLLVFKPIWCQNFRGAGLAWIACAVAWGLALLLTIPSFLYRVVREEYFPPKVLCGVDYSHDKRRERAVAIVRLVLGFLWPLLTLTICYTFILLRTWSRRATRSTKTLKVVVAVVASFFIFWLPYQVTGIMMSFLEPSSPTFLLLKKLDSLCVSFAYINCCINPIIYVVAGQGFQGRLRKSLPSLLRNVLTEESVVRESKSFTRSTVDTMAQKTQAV
168 GPCRs (Homo sapiens, UniProt Q03431), sequence (Q03431 27-593): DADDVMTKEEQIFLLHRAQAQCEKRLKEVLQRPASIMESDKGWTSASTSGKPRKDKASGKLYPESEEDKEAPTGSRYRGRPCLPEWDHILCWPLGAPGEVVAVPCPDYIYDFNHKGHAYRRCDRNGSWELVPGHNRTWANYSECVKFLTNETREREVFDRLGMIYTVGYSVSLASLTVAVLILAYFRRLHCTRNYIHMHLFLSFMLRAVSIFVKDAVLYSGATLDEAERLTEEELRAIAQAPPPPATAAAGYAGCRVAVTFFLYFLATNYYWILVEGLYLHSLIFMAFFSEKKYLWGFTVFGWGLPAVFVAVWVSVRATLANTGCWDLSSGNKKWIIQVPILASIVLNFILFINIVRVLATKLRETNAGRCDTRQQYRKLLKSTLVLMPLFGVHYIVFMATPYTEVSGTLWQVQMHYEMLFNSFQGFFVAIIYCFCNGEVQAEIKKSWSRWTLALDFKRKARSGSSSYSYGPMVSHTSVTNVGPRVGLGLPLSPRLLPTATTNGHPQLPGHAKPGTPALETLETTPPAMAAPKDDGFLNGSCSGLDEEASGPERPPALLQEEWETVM
168 GPCRs (Homo sapiens, UniProt P30989), sequence (P30989 whole entry): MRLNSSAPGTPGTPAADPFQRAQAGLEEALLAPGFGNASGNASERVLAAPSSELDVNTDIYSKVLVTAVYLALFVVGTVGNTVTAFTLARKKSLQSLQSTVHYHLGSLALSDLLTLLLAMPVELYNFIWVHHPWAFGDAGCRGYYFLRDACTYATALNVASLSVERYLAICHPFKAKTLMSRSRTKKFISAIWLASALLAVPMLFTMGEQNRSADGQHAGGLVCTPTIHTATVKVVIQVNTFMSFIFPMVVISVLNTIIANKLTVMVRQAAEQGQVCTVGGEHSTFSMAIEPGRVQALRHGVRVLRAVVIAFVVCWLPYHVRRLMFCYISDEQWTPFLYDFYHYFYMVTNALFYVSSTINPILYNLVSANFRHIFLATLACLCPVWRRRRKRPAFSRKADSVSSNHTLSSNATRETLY
168 GPCRs (Homo sapiens, UniProt P35346), sequence (P35346 whole entry): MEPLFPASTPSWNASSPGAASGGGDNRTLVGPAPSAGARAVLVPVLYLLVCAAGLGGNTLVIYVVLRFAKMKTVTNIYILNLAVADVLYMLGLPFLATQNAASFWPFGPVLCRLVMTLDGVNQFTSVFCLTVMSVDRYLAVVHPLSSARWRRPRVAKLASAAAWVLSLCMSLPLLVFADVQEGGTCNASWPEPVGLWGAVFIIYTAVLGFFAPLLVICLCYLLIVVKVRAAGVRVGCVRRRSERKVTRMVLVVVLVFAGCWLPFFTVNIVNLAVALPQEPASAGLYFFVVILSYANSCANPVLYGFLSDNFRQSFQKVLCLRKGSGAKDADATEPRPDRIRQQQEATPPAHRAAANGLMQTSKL
168 GPCRs (Homo sapiens, UniProt P35367), sequence (P35367 whole entry): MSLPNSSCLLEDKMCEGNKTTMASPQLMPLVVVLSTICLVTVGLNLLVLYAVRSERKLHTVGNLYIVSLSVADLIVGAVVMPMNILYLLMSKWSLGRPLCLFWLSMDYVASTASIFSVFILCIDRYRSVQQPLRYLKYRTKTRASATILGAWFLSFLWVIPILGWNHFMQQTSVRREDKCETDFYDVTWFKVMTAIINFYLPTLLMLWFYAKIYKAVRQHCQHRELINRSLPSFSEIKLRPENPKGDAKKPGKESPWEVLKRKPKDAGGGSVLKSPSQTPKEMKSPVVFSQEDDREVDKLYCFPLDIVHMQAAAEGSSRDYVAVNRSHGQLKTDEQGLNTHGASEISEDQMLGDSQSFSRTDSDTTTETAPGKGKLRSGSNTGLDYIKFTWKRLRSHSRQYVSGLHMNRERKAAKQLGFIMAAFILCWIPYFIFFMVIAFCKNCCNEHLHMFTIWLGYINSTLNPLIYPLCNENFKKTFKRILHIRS
168 GPCRs (Homo sapiens, UniProt P30874), sequence (P30874 whole entry): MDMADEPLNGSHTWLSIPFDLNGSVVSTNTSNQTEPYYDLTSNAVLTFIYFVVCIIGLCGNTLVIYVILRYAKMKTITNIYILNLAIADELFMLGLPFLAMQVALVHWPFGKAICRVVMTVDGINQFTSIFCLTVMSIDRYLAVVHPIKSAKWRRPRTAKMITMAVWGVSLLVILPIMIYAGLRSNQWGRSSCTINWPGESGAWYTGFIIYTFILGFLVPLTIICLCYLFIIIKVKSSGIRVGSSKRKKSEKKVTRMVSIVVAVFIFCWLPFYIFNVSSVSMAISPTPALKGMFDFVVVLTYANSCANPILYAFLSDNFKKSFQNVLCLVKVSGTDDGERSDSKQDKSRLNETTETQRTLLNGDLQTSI

`CNC(C)C(=O)c1ccc2c(c1)OCO2` (stereo not shown) [methylone, 3,4-methylenedioxy-N-methylcathinone] gave an activity at 10 µM (168 GPCRs [1]; HRH1, Antagonist mode, 10 uM) of 2.2%, an activity at 1 µM (168 GPCRs [1]; HRH1, Antagonist, 1 uM) of -18% and an activity at 10 µM (168 GPCRs [2]; P2RY4, Antagonist mode, 10 uM) of 17.5%. The activity at 1 µM (168 GPCRs [2]; P2RY4, Antagonist, 1 uM) was 15.1%, the activity at 10 µM (168 GPCRs [3]; PROKR2, Antagonist mode, 10 uM) was 6.8% and the activity at 1 µM (168 GPCRs [3]; PROKR2, Antagonist, 1 uM) was 2%. It also gave an activity at 10 µM (168 GPCRs [4]; Antagonist mode, 10 uM) of 0.3%, an activity at 1 µM (168 GPCRs [4]; Antagonist, 1 uM) of -5.7% and an activity at 1 µM (168 GPCRs [5]; 1 uM) of 10%. For the same compound, the activity at 10 µM (168 GPCRs [5]; 10 uM) was 1.4%, the activity at 10 µM (168 GPCRs [6]; SSTR5, Antagonist mode, 10 uM) was 5.7% and the activity at 1 µM (168 GPCRs [6]; SSTR5, Antagonist, 1 uM) was 14.7%. The activity at 1 µM (168 GPCRs [7]; 1 uM) was -11.8%, the activity at 10 µM (168 GPCRs [7]; 10 uM) was -4% and the activity at 1 µM (168 GPCRs [8]; 1 uM) was -18.5%. It also gave an activity at 10 µM (168 GPCRs [8]; 10 uM) of -7.4%, an activity at 10 µM (168 GPCRs [9]; CRHR2, Antagonist mode, 10 uM) of -0.3% and an activity at 1 µM (168 GPCRs [9]; CRHR2, Antagonist, 1 uM) of -2%. The activity at 10 µM (168 GPCRs [10]; Antagonist mode, 10 uM) was -19.7%, the activity at 1 µM (168 GPCRs [10]; Antagonist, 1 uM) was -5.5% and the activity at 10 µM (168 GPCRs [11]; MCHR1, Antagonist mode, 10 uM) was -18.3%. It also gave an activity at 1 µM (168 GPCRs [11]; MCHR1, Antagonist, 1 uM) of -12.2%, an activity at 10 µM (168 GPCRs [12]; SSTR2, Antagonist mode, 10 uM) of -4.2% and an activity at 1 µM (168 GPCRs [12]; SSTR2, Antagonist, 1 uM) of -0.4%. It also gave an activity at 10 µM (168 GPCRs [13]; VIPR2, Antagonist mode, 10 uM) of -2.6%, an activity at 1 µM (168 GPCRs [13]; VIPR2, Antagonist, 1 uM) of -1.5% and an activity at 10 µM (168 GPCRs [14]; PTHR1, Antagonist mode, 10 uM) of -8.3%. The activity at 1 µM (168 GPCRs [14]; PTHR1, Antagonist, 1 uM) was 2.2%, the activity at 10 µM (168 GPCRs [15]; OXER1, Antagonist mode, 10 uM) was 7.6% and the activity at 1 µM (168 GPCRs [15]; OXER1, Antagonist, 1 uM) was 2.9%. It also gave an activity at 10 µM (168 GPCRs [16]; Antagonist mode, 10 uM) of 9.1%, an activity at 1 µM (168 GPCRs [16]; Antagonist, 1 uM) of 25.8% and an activity at 10 µM (168 GPCRs [17]; NTSR1, Antagonist mode, 10 uM) of -1.7%. For the same compound, the activity at 1 µM (168 GPCRs [17]; NTSR1, Antagonist, 1 uM) was -0.7%, the activity at 1 µM (168 GPCRs [18]; 1 uM) was -8.1% and the activity at 10 µM (168 GPCRs [18]; 10 uM) was -16.6%. For the same compound, the activity at 10 µM (168 GPCRs [19]; P2RY6, Antagonist mode, 10 uM) was 2.6%, the activity at 1 µM (168 GPCRs [19]; P2RY6, Antagonist, 1 uM) was 6.5% and the activity at 1 µM (168 GPCRs [20]; 1 uM) was 8.9%. It also gave an activity at 10 µM (168 GPCRs [20]; 10 uM) of 5%, an activity at 10 µM (168 GPCRs [21]; GPR1, Antagonist mode, 10 uM) of 7.4% and an activity at 1 µM (168 GPCRs [21]; GPR1, Antagonist, 1 uM) of 4.4%. It also gave an activity at 10 µM (168 GPCRs [22]; VIPR1, Antagonist mode, 10 uM) of 5.3%, an activity at 1 µM (168 GPCRs [22]; VIPR1, Antagonist, 1 uM) of -0.7% and an activity at 10 µM (168 GPCRs [23]; Antagonist mode, 10 uM) of 2.5%. The activity at 1 µM (168 GPCRs [23]; Antagonist, 1 uM) was 5.3%.
